{"source": "patent US20090208408A1", "about": "“USE OF VCAM-1 LIGANDS FOR DETECTING AND/OR TREATING CARDIOVASCULAR DISEASES” (UNIVERSITE JOSEPH FOURIER, priority 2004, published 2009)", "key": {"[1]": {"test": "Biodistribution 180 minutes after the injection", "format": "in vivo", "conditions": "rabbit, iv, total radioactivity", "procedure": "(§1) Samples of blood were taken 1, 2, 5, 10, 15, 20, 25 and 30 minutes after injection of the tracers. The animals were euthanased 30 minutes (examples 2, 3 and 4) or 180 minutes (examples 5 and 6) after injection of the labelled VCAM-1 ligands. Samples of the principal organs were taken. These samples, as well as the blood samples taken, were counted for the radioactivity which they contain. The dorsal aorta, the aortic arch and the ventral aorta were also sampled and immediately placed in 10% formalin. A portion of ventral aorta was placed for 24 hours in 3.7% formaldehyde for subsequent inclusion in paraffin and verification by immunohistology of the presence of VCAM-1.\n(§2) The tracers ^123I-B2702.84-75 and ^99mTc-B2702.84-75 were evaluated according to the same methodology as was used for Examples 3 and 4, except that the animals were euthanased 180 minutes (30 minutes previously) after the injection of the tracers.\nThe binding values are expressed as a percentage of the injected dose per gram of organ (% ID/g)."}, "[2]": {"test": "Blood kinetics up to 180 minutes after injection", "format": "in vivo, rabbit", "conditions": "180 minutes after the injection", "procedure": "as §2\nThe blood samples for measuring the circulatory tracer activity were taken 1, 2, 5, 10, 20, 25, 30, 60, 120 and 180 minutes after the injection. 180 minutes after the injection, the circulatory activity of ^123I-B2702.84-75 and ^99mTc-B2702.84-75 represents respectively 30% and 15% of the initial activity. It will be recalled that the circulatory activity of ^125I-B2702.84-75 represented approximately 40% of the initial activity 30 minutes after the injection in the experiments described in Example 3."}, "atheromatous plaques": {"test_system": "atheromatous plaques", "test": "Aortic binding, ex vivo autoradiography, euthanasia after 180 minutes", "format": "in vivo, rabbit", "conditions": "180 minutes after injection", "procedure": "as §1\nThe dorsal and ventral aortas were placed in contact with a high-resolution phosphorus screen (Fujifilm 08SR2025) in darkness for 18 hours. The screen was then scanned (phosphoimager Fujifilm BAS 5000) and the images of the distribution of the labelled VCAM-1 ligands on the aortas of healthy or hyperlipidemic animals were quantified with the aid of the Scion Image Beta software available on the National Institute of Health internet site. […]\nThe tracers ^123I-B2702.84-75 and ^99mTc-B2702.84-75 were evaluated according to the same methodology as was used for Examples 3 and 4, except that the animals were euthanased 180 minutes (30 minutes previously) after the injection of the tracers. […]"}, "VCAM-1": {"target": "T1, VCAM-1 (Homo sapiens, UniProt P19320)", "T1 sequence (P19320 25-739)": "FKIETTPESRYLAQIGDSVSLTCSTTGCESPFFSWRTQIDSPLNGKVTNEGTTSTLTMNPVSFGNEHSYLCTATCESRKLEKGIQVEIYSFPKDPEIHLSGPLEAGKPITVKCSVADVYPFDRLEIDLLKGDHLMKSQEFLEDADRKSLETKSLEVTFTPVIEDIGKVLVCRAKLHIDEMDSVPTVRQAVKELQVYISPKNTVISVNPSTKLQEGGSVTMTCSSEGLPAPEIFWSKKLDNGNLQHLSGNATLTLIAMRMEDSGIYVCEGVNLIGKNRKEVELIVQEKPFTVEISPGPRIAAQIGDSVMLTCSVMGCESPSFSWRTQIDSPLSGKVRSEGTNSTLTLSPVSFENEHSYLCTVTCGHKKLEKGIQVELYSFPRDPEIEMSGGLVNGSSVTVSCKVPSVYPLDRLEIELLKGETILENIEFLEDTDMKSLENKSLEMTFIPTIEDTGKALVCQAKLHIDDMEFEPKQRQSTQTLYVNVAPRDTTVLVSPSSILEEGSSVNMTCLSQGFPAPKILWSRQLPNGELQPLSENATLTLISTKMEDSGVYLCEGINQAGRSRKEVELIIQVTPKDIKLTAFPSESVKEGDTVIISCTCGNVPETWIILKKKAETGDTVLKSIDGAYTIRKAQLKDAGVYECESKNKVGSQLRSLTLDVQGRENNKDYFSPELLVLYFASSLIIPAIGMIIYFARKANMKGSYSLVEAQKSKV", "conditions": "as shown by Ling et al. (2000); cited from earlier work"}}, "note": "Read-outs that look alike come from different tables or passages of the source. Where a SMILES comes first, the peptide text is derived from it. [ ]: non-standard residue; d: D form. Tyr(3-I) = N[C@@H](Cc1ccc(O)c(I)c1)C(=O)O", "data": [{"compound": "CC[C@H](C)[C@H](NC(=O)[C@H](C)NC(=O)[C@H](CC(C)C)NC(=O)[C@H](CCCNC(=N)N)NC(=O)[C@@H](N)Cc1ccc(O)c(I)c1)C(=O)N[C@@H](CCCNC(=N)N)C(=O)N[C@@H](CC(C)C)C(=O)N[C@@H](CC(N)=O)C(=O)N[C@@H](CCC(=O)O)C(=O)N[C@@H](CCCNC(=N)N)C(=O)O", "note": "[^123I-B2702.84-75] (H-[Tyr(3-I)]RLAIRLNER-OH; N-terminus and C-terminus assumed)", "values": [{"measurement": "tissue uptake at 3 h", "setting": "[1]; aorta, Control rabbits (n = 3), read-out: Biodistribution, Aorta", "value": "0.011 ± 0.004", "unit": "%ID/g"}, {"measurement": "tissue uptake at 3 h", "setting": "[1]; aorta, WHHL rabbits (n = 3), read-out: Biodistribution, Aorta", "value": "0.034 ± 0.012", "unit": "%ID/g"}, {"measurement": "tissue uptake at 3 h", "setting": "[1]; blood, Control rabbits (n = 3), read-out: Biodistribution, Blood", "value": "0.19 ± 0.038", "unit": "%ID/g"}, {"measurement": "tissue uptake at 3 h", "setting": "[1]; blood, WHHL rabbits (n = 3), read-out: Biodistribution, Blood", "value": "0.161 ± 0.048", "unit": "%ID/g"}, {"measurement": "tissue uptake at 3 h", "setting": "[1]; fat, Control rabbits (n = 3), read-out: Biodistribution, Fat", "value": "0.011 ± 0.001", "unit": "%ID/g"}, {"measurement": "tissue uptake at 3 h", "setting": "[1]; fat, WHHL rabbits (n = 3), read-out: Biodistribution, Fat", "value": "0.015 ± 0.006", "unit": "%ID/g"}, {"measurement": "tissue uptake at 3 h", "setting": "[1]; heart, Control rabbits (n = 3), read-out: Biodistribution, Heart", "value": "0.088 ± 0.017", "unit": "%ID/g"}, {"measurement": "tissue uptake at 3 h", "setting": "[1]; heart, WHHL rabbits (n = 3), read-out: Biodistribution, Heart", "value": "0.088 ± 0.031", "unit": "%ID/g"}, {"measurement": "tissue uptake at 3 h", "setting": "[1]; kidney, Control rabbits (n = 3), read-out: Biodistribution, Kidney", "value": "0.307 ± 0.052", "unit": "%ID/g"}, {"measurement": "tissue uptake at 3 h", "setting": "[1]; kidney, WHHL rabbits (n = 3), read-out: Biodistribution, Kidney", "value": "0.49 ± 0.184", "unit": "%ID/g"}, {"measurement": "tissue uptake at 3 h", "setting": "[1]; liver, Control rabbits (n = 3), read-out: Biodistribution, Liver", "value": "0.086 ± 0.025", "unit": "%ID/g"}, {"measurement": "tissue uptake at 3 h", "setting": "[1]; liver, WHHL rabbits (n = 3), read-out: Biodistribution, Liver", "value": "0.096 ± 0.029", "unit": "%ID/g"}, {"measurement": "tissue uptake at 3 h", "setting": "[1]; lung, Control rabbits (n = 3), read-out: Biodistribution, Lung", "value": "0.138 ± 0.028", "unit": "%ID/g"}, {"measurement": "tissue uptake at 3 h", "setting": "[1]; lung, WHHL rabbits (n = 3), read-out: Biodistribution, Lung", "value": "0.163 ± 0.044", "unit": "%ID/g"}, {"measurement": "tissue uptake at 3 h", "setting": "[1]; muscle, Control rabbits (n = 3), read-out: Biodistribution, Muscle", "value": "0.028 ± 0.003", "unit": "%ID/g"}, {"measurement": "tissue uptake at 3 h", "setting": "[1]; muscle, WHHL rabbits (n = 3), read-out: Biodistribution, Muscle", "value": "0.026 ± 0.009", "unit": "%ID/g"}, {"measurement": "tissue uptake at 3 h", "setting": "[1]; spleen, Control rabbits (n = 3), read-out: Biodistribution, Spleen", "value": "0.076 ± 0.015", "unit": "%ID/g"}, {"measurement": "tissue uptake at 3 h", "setting": "[1]; spleen, WHHL rabbits (n = 3), read-out: Biodistribution, Spleen", "value": "0.089 ± 0.029", "unit": "%ID/g"}, {"measurement": "tissue uptake at 3 h", "setting": "[1]; stomach, Control rabbits (n = 3), read-out: Biodistribution, Stomach", "value": "0.095 ± 0.025", "unit": "%ID/g"}, {"measurement": "tissue uptake at 3 h", "setting": "[1]; stomach, WHHL rabbits (n = 3), read-out: Biodistribution, Stomach", "value": "0.114 ± 0.04", "unit": "%ID/g"}, {"measurement": "circulatory activity, of the initial activity", "setting": "[2]", "value": 30, "unit": "%"}, {"measurement": "binding on atheromatous plaques of WHHL animals relative to aortas of control animals", "setting": "atheromatous plaques", "value": 17.0, "unit": "times"}, {"measurement": "binding ratio atheromatous plaque / normal aortic zone", "setting": "atheromatous plaques; WHHL animals", "value": 4.0}]}, {"compound": "B2702.84-75/75-84: peptide of sequence YRLAIRLNERRENLRIALRY (SEQ ID no 2), inverse dimer of residues 84-75/75-84 of HLA-B2702 (listed as Homo sapiens)", "values": [{"measurement": "binding to VCAM-1", "setting": "VCAM-1", "value": "bind specifically to VCAM-1"}]}]}
